According to patent US20060058320A1, “[1,2,4] Triazolo[1,5-c]pyrimidine derivatives” (KYOWA HAKKO KOGYO CO., LTD., priority 2002, published 2006):
Where a name gives a salt, the structure may show the parent alone. Read-outs that look alike come from different tables or passages of the source.

What was measured:
adenosine A2A receptor = target: T1, adenosine A2A receptor (Rattus norvegicus, UniProt P30543); assay: Adenosine A2A receptor binding test (3H-CGS 21680 binding); details: for inhibition at 0.1 µM: read-out: A2A Receptor inhibition rate (%) at 10^−7 mol/L
T1 construct: from tissue; host or cells: rat corpus striatum membrane preparation
Protocol: The test was carried out according to the method of Bruns et al. [Molecular Pharmacology, vol. 29, p.
Rat corpus striatum was suspended in an ice-cold 50 mmol/L tris(hydroxymethyl)aminomethane hydrochloride (referred to as “Tris HCl” hereinafter) buffer (pH 7.7) using a Polytron homogenizer (produced by Kinematica Co.). The suspension was centrifuged (50,000×g, 10 minutes), and the resulting precipitate was again suspended in the same amount of a 50 mmol/L Tris HCl buffer, followed by centrifugation under the same conditions. The resulting finalprecipitate was again suspended in a 50 mmol/L-Tris HCl buffer [containing 10 mmol/L of magnesium chloride and 0.02 unit/mg tissue of adenosine deaminase (produced by Sigma Co.)] so that the tissue concentration was 5 mg (wet weight)/mL.
The radioactivity on the filter was determined with a liquid scintillation counter (produced by Packard Instrument Co.).
In the equation, X represents Amount of binding in the presence of a medicament, Y represents Amount of nonspecific binding, and Z represents Amount of total binding.

[1] = test system: CGS 21680-induced catalepsy; assay: Activity on CGS 21680-induced catalepsy; type: in vivo, mice; details: for inhibition in vivo at 10 mg/kg: Mus musculus, po, read-out: Remission ratio (%); for Total score: total catalepsy score of 10 mice (maximum 50 points; 40 points or less = positive), one hour after administration; for Number of animals showing remission: cases with catalepsy score of 4 points or less in 10 cases
Outline: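 Male ddY mice, 5 weeks old, ten per group, were dosed orally with compound at 10 mg/kg in 0.3% Tween 80 water, 30 min before CGS 21680 (10 μg/20 μL) was injected into the cerebral ventricle. Catalepsy was scored 1 h after compound dosing by placing forelimbs or hindlimbs on a 4.5 cm stand.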

male ddY mice = assay: Forced swimming method (measurement of immobility time); type: in vivo; details: orally administered, 10 mg/kg, one hour before the test; versus solvent group (Steel-test)
Protocol: Ten male ddY mice (21 to 26 g in body weight, Japan SLC) per group were used as test animals. During the preliminary feeding period, the animals were bred to be allowed to freely have feed (CRF-1; Oriental Yeast Co., Ltd, Tokyo) and water (tap water) in an animal room at a room temperature for 23±1° C. and a humidity of 55±5%.
Animals showing abnormal reactions in terms of spontaneous activity, myotonia, eyesight and the like were previously excluded. Each test compound was suspended in a 0.3% Tween 80 solution and orally administered one hour before the test. In the negative control group, 10 mL/kg of a 0.3% Tween 80 solution alone was orally administered. The immobility time was measured according to the Porsolt method [Arch. Int. Pharmacodyn., vol. 229, pp. 327-336 (1977)]. Namely, a cylindrical transparent acrylic water tank (10 cm in diameter and 25 cm in height) was filled with water at a temperature between 23±1° C. to a height of 9 cm, and the mice were forced to swim for 6 minutes. When the mice are put into water, they immediately start to swim trying to escape from the tank, but the motion gradually decreases 1 to 2 minutes thereafter. […] In order to reduce the effects of daily rhythm, the test was carried out using 5 of the 10 animals per group in the morning, and the remaining 5 animals in the afternoon. The immobility time was measured by observing 2 animals at the same time without telling the observers distinctions about the control group administered with the solvent alone and doses of the test compounds. Statistical analysis of the results was carried out by a multiple comparison Steel-test between the solvent-administered group and the test compound-administered group.

[2] = test compound 10^−7 mol/L, 3H-CGS 21680 binding, rat corpus striatum
[3] = from total score of test group and control group, 10 mg/kg orally

T1 sequence (P30543 whole entry): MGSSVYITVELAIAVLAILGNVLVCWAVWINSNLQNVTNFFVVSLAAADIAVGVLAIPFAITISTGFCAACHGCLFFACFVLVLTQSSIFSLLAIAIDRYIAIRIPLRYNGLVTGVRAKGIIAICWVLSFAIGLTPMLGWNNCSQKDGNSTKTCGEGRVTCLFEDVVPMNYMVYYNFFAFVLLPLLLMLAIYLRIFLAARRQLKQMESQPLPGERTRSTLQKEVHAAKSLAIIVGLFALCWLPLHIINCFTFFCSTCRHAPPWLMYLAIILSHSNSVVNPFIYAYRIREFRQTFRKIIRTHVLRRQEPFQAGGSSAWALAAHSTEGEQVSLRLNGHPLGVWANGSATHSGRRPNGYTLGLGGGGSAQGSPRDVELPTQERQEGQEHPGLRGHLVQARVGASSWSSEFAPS

Molecule | inhibition at 0.1 µM (adenosine A2A receptor; [2]) | melting point | Total score ([1]; 10 mg/kg orally) | other results
Nc1nc(C(=O)c2ccccc2)cc2nc(-c3ccco3)nn12 [Compound 39, 5-Amino-7-benzoyl 2-(2-furyl)[1,2,4]triazolo[1,5-c]-pyrimidine] | 66% | 229.2 to 229.7 °C | – | –
Nc1nc(C=O)cc2nc(-c3ccco3)nn12 [Compound 41, 5-Amino-7-formyl-2-(2-furyl)[1,2,4]triazolo[1,5-c]pyrimidine] | 54% | 270 °C (dec.) | – | –
CC(=O)c1cc2nc(-c3ccco3)nn2c(N)n1 [Compound 38, 7-Acetyl-5-amino-2-(2-furyl)[1,2,4]triazolo[1,5-c]pyrimidine] | 84% | 221.2 to 221.5 °C | – | –
Nc1nc(-c2ccccc2)cc2nc(-c3ccco3)nn12 [Compound 1, 5-Amino-2-(2-furyl)-7-phenyl[1,2,4]triazolo[1,5-c]pyrimidine] | 65% | 218.5 to 219 °C | – | –
CC(C)NC(=O)c1cc2nc(-c3ccco3)nn2c(N)n1 [Compound 89, 5-Amino-2-(2-furyl) [1,2,4]triazolo[1,5-c]pyrimidine-7-carboxylic acid isopropylamide] | 89% | – | 8 | inhibition in vivo at 10 mg/kg [1, 3]: 84%; immobility time (male ddY mice): significant effect of decreasing the immobility time
Nc1nc(-c2cccs2)cc2nc(-c3ccco3)nn12 [Compound 51, 5-Amino-2-(2-furyl)-7-(2-thienyl)[1,2,4]triazolo[1,5-c]-pyrimidine] | – | 232.2 to 232.3 °C | – | inhibition at 0.1 µM (adenosine A2A receptor): 68%
Nc1nc(CCc2ccccc2)cc2nc(-c3ccco3)nn12 [Compound 66, 5-Amino-2-(2-furyl)-7-(2-phenylethyl)[1,2,4]triazolo[1,5-c]-pyrimidine] | 82% | 205 to 205.1 °C | – | –
CN(Cc1ccnc2ccccc12)C(=O)c1cc2nc(-c3ccco3)nn2c(N)n1 [Compound 113, 5-Amino-2-(2-furyl)[1,2,4]triazolo[1,5-c]pyrimidine-7-carboxylic acid [N-methyl-N-(4-quinolylmethyl)]amide] | 66% | – | 12 | inhibition in vivo at 10 mg/kg [1, 3]: 76%
Nc1nc(C(=O)N2CCC3CCCCC3C2)cc2nc(-c3ccco3)nn12 (stereo not drawn) [Compound 151, 5-Amino-2-(2-furyl)[1,2,4]triazolo[1,5-c]pyrimidin-7-yl cis-decahydroisoquinolyl ketone] | – | – | 12 | A2A Receptor inhibition rate (%) at 10^−7 mol/L (adenosine A2A receptor; [2]): 71%; Number of animals showing remission ([1]; 10 mg/kg orally): 8; Remission ratio (%) [1, 3]: 74%
COCCN1CCN(Cc2cc3nc(-c4ccco4)nn3c(N)n2)CC1 [Compound 49, 5-Amino-2-(2-furyl)-7-[4-(2-methoxyethyl)piperazin-1-yl-methyl][1,2,4]triazolo[1,5-c]pyrimidine dihydrochloride] | 89% | – | 4 | inhibition in vivo at 10 mg/kg [1]: 92%
5-Amino-2-(2-furyl)[1,2,4]triazolo[1,5-c]pyrimidine-7-carboxylic acid (1,2,3,4-tetrahydroisoquinolyl)amide [Compound 94] | – | – | 5 | A2A Receptor inhibition rate (%) at 10^−7 mol/L (adenosine A2A receptor; [2]): 95%; Number of animals showing remission ([1]; 10 mg/kg orally): 10; Remission ratio (%) [1, 3]: 90%; immobility time (male ddY mice): significant effect of decreasing the immobility time
COCCN1CC=C(c2cc3nc(-c4ccco4)nn3c(N)n2)CC1 [Compound 73, 5-Amino-2-(2-furyl)-7-[1-(2-methoxyethyl)-1,2,3,6-tetra-hydropyridin-4-yl][1,2,4]triazolo[1,5-c]pyrimidine] | – | – | 6 | inhibition at 0.1 µM (adenosine A2A receptor): 98%; inhibition in vivo at 10 mg/kg [1]: 88%
CCCCc1cc2nc(-c3ccco3)nn2c(N)n1 [Compound 64, 5-Amino-7-butyl-2-(2-furyl)[1,2,4]triazolo[1,5-c]pyrimidine] | 81% | 155 to 155.3 °C | – | –
Nc1nc(-c2ccc(CNCCc3ccccn3)cc2)cc2nc(-c3ccco3)nn12 [Compound 11, 5-Amino-2-(2-furyl)-7-{4-[2-(2-pyridyl)ethylaminomethyl]-phenyl}[1,2,4]triazolo[1,5-c]pyrimidine] | 53% | 159.8 to 160.5 °C | – | –
Nc1nc(-c2cc3nc(-c4ccco4)nn3c(N)n2)cs1 [Compound 58, 5-Amino-7-(2-aminothiazol-4-yl)-2-(2-furyl)-[1,2,4]triazolo-[1,5-c]pyrimidine] | 70% | – | 10 | inhibition in vivo at 10 mg/kg [1, 3]: 80%
CC1CCN(C(=O)c2cc3nc(-c4ccco4)nn3c(N)n2)CC1 [Compound 143, 5-Amino-2-(2-furyl)[1,2,4]triazolo[1,5-c]pyrimidin-7-yl 4-methylpiperidino ketone] | 70% | – | 5 | inhibition in vivo at 10 mg/kg [1, 3]: 90%
Nc1nc(C(=O)N2CCCCCC2)cc2nc(-c3ccco3)nn12 [Compound 154, 5-Amino-2-(2-furyl)[1,2,4]triazolo[1,5-c]pyrimidin-7-yl perhydroazepinyl ketone] | – | – | 16 | A2A Receptor inhibition rate (%) at 10^−7 mol/L (adenosine A2A receptor; [2]): 56%; Number of animals showing remission ([1]; 10 mg/kg orally): 7; Remission ratio (%) [1, 3]: 66%
Nc1nc(CCO)cc2nc(-c3ccco3)nn12 [Compound 67, 5-Amino-2-(2-furyl)-7-(2-hydroxyethyl)[1,2,4]triazolo[1,5-c]pyrimidine] | 91% | 207.2 to 207.8 °C | – | –
Nc1nc(C(=O)c2ccc(F)cc2)cc2nc(-c3ccco3)nn12 [Compound 40, 5-Amino-7-(4-fluorobenzoyl)-2-(2-furyl)[1,2,4]triazolo-[1,5-c]pyrimidine] | 58% | – | 3 | inhibition in vivo at 10 mg/kg [1, 3]: 94%
